Laboratory results reported in patent US7662778B2, “Histone deacetylase inhibitor and process for producing the same” (Riken, priority 2003, dated 2010).
Read-outs that look alike come from different tables or passages of the source. Where a SMILES comes first, the peptide text is derived from it. [ ]: non-standard residue; d: D form. The star is where a group is joined. hLys(Nζ-OH,Nζ-For) = N[C@@H](CCCCCN(O)C=O)C(=O)O; Asu = N[C@@H](CCCCCC(=O)O)C(=O)O; dPip = O=C(O)[C@H]1CCCCN1; X2 = Nc1ccccc1O*

Experiments:
human HDAC1 = molecular target: T1, human HDAC1 (Homo sapiens, UniProt Q13547); experiment: HDAC inhibitory activity in vitro (coumarin-labeled acetylated histone peptide), HDAC1; format: biochemical
T1 construct: FLAG; made in house; host or cells: 293T cells, transient transfection; anti-FLAG immunoprecipitation and FLAG peptide elution

human HDAC4 = molecular target: T2, human HDAC4 (Homo sapiens, UniProt P56524); experiment: HDAC inhibitory activity in vitro (coumarin-labeled acetylated histone peptide), HDAC4; format: biochemical
T2 construct: FLAG; made in house; host or cells: 293T cells, transient transfection; anti-FLAG immunoprecipitation and FLAG peptide elution

mouse HDAC6 = molecular target: T3, mouse HDAC6 (Mus musculus, UniProt Q9Z2V5); experiment: HDAC inhibitory activity in vitro (coumarin-labeled acetylated histone peptide), HDAC6; format: biochemical
T3 construct: HA; made in house; host or cells: 293T cells, transient transfection; anti-HA immunoprecipitation and HA peptide elution
T3 sequence (Q9Z2V5 1-1149): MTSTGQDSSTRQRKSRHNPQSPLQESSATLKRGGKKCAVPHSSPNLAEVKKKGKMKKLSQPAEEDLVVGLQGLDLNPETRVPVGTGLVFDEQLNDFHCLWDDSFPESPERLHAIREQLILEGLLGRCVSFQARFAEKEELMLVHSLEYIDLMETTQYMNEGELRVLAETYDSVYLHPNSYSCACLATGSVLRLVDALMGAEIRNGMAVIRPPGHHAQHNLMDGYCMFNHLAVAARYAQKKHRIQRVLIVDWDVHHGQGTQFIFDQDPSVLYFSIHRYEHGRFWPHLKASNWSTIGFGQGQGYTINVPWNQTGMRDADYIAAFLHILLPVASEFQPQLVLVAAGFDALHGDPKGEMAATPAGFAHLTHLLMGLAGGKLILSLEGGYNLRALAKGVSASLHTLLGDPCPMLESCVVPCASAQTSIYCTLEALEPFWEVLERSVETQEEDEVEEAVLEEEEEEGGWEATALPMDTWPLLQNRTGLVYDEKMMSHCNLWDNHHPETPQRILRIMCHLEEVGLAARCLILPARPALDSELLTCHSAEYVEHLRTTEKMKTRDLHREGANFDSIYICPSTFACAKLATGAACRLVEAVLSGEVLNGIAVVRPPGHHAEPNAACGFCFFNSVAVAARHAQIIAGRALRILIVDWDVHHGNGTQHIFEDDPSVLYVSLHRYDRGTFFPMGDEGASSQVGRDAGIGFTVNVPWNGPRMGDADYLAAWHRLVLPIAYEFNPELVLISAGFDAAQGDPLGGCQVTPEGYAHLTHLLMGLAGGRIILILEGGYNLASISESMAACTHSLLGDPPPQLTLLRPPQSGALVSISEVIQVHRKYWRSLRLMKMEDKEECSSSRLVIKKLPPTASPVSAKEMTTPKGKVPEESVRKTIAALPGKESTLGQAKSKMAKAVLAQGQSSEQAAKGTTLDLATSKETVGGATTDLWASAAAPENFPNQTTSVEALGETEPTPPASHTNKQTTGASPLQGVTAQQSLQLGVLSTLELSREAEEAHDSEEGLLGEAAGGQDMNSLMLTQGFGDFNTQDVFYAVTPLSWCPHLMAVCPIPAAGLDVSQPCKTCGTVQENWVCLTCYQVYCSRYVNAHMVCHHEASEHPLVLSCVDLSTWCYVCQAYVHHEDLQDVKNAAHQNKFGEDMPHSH

[1] = amide bond, 12-membered ring, HATU/DIEA, DMF, 25.0 °C
[2] = system: human wild-type p21 promoter; experiment: p21 promoter-inducing activity (luciferase) in MFLL-9 cells; format: cell-based
Protocol: The HDAC inhibitory activity in vivo was measured using p21 promoter-inducing activity as an index, as shown below. The MFLL-9 cells employed for the experiments stably maintained fusion genes of human wild-type p21 promoter and luciferase (Dr. B. Vogelstaein). Using phenol red-free DMEM medium comprising 10% FBS, cultivation was carried out in a steam-saturated incubator at 37° C. with 5% carbon dioxide. The MFLL-9 cells were plated at a density of 85,000 cells/well on a 96-well microtiter plate, each in 99 μl of the above-mentioned medium. These were then cultivated for six hours. One μl of test compound solution was added to each well, which was then cultured for another 18 hours.
The intensity of luminescence caused by the product of the enzyme reaction for intracellular luciferase expression was measured using Luc Lite (Packard BioScience Company).
HDAC inhibitory activity in an in vivo system was measured using p21 promoter induction as index. The experimental method followed that of Example 11.

[3] = Table 1, 37° C., 30 minutes, read-out: IC50 (μM) HDAC1
[4] = Table 1, 37° C., 30 minutes, read-out: IC50 (μM) HDAC4
[5] = Table 1, 37° C., 30 minutes, read-out: IC50 (μM) HDAC6
[6] = Table 1, MFLL-9 cells, 18 hours, concentration corresponding to 50% of the maximum active value for TSA

T1 sequence (Q13547 whole entry): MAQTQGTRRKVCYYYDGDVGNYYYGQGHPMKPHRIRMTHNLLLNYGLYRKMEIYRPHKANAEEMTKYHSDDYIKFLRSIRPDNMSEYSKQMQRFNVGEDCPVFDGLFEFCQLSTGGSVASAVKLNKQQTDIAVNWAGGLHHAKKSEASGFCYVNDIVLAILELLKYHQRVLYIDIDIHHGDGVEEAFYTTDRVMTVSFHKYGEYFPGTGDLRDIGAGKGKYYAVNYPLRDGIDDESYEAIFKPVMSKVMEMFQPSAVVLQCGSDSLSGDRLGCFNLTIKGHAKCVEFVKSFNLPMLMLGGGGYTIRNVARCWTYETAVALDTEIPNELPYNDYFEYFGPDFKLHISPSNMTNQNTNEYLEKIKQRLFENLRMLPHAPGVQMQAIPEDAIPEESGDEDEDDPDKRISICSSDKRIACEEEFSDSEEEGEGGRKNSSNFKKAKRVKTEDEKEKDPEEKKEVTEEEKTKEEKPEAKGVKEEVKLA
T2 sequence (P56524 whole entry): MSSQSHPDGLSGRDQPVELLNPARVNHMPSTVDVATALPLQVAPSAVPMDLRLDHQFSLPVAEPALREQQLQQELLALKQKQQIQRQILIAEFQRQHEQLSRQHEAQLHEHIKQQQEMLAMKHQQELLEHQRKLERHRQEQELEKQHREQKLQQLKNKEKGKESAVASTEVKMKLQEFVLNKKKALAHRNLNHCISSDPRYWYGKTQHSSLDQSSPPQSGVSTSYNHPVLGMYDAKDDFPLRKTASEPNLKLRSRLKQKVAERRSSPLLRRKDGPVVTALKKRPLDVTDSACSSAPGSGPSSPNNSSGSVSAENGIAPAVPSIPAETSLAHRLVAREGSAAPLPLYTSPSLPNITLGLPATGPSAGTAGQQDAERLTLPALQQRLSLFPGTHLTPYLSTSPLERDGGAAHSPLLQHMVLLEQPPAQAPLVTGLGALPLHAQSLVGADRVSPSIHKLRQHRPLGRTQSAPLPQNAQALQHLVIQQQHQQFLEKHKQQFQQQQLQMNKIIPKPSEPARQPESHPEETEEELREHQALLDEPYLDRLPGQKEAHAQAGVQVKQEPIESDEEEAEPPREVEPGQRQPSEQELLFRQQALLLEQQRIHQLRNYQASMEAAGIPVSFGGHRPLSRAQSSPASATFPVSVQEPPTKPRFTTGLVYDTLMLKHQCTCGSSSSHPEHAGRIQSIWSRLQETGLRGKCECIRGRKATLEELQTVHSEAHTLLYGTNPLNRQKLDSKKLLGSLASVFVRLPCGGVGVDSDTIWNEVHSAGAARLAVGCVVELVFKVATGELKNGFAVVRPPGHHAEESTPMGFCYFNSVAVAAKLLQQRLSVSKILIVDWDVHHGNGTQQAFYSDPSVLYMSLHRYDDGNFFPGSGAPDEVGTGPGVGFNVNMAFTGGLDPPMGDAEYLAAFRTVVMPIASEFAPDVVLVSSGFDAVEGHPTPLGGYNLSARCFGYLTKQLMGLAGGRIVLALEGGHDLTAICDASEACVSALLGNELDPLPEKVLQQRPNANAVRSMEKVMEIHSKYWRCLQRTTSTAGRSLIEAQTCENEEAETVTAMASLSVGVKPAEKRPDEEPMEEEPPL

Row | Molecule | IC50 (human HDAC4; [4]) | IC50 (mouse HDAC6; [5]) | EC50 [2, 6] | also measured
1 | CC[C@H](C)[C@@H]1NC(=O)[C@@H](Cc2ccc(OC)cc2)NC(=O)[C@H](CCCCCCN(C=O)OCc2ccccc2)NC(=O)C2CCCCN2C1=O (mixture of isomers) [Cyclo(-L-A2oc(For, OBzl)-D-Tyr(Me)-L-Ile-DL-Pip-)] |  |  |  | ring closure, isolated yield ([1]; from H-dTyr(Me)-Ile-DL-Pip-A2oc(For,OBzl)-OH, 1.6 mM): 21%
2 | CC[C@H](C)[C@@H]1NC(=O)[C@@H](Cc2ccc(OC)cc2)NC(=O)[C@H](CCCCCC(=O)Oc2ccccc2N)NC(=O)[C@H]2CCCN2C1=O [OAPNH, cyclo(L-Asu(OAPNH)-D-Tyr(Me)-L-Ile-D-Pro)] (cyclo([Asu](X2)[dY](Me)I[dP])) |  |  |  | IC50 (human HDAC1; Table 3, method of Example 11, read-out: IC50(μM) HDAC1): 0.4 µM; IC50 (human HDAC4; Table 3, method of Example 11, read-out: IC50(μM) HDAC4): 0.24 µM; IC50 (mouse HDAC6; Table 3, method of Example 11, read-out: IC50(μM) HDAC6): 441 µM; EC50 ([2]; Table 3, method of Example 11, 50% of the maximum activity observed in TSA): 12.9 µM
3 | CC[C@H](C)[C@@H]1NC(=O)[C@@H](Cc2ccc(OC)cc2)NC(=O)[C@H](CCCCCS(C)(=O)=O)NC(=O)[C@H]2CCCN2C1=O [SO2Me] |  |  | > 100 µM | 
4 | CC[C@H](C)[C@@H]1NC(=O)[C@@H](Cc2ccc(OC)cc2)NC(=O)[C@H](CCCCN(C=O)OCc2ccccc2)NC(=O)[C@@H]2CCCCN2C1=O [cyclo(-L-Lys(For, OBzl)-D-Tyr(Me)-L-Ile-L-Pip-)] |  |  |  | ring closure, isolated yield ([1]; from H-dTyr(Me)-Ile-Pip-Lys(For,OBzl)-OH?, 0.4 mM): 24%
5 | CC[C@H](C)[C@@H]1NC(=O)[C@@H](Cc2ccc(OC)cc2)NC(=O)[C@H](CCCCCN(O)C=O)NC(=O)[C@H]2CCCN2C1=O [N(OH)COH Cyclo(X-y(Me)-I-p), n = 5] (cyclo([hLys(Nζ-OH,Nζ-For)][dY](Me)I[dP])) | 0.074 µM | 0.78 µM |  | 
6 | cyclo(-L-Aph-D-Tyr(Me)-L-Ile-D-Pro-) |  |  |  | ring closure, isolated yield ([1]; 2.7 mM, 2 steps): 11%
7 | CC[C@H](C)[C@@H]1NC(=O)[C@@H](Cc2ccc(OC)cc2)NC(=O)[C@H](CCCCCN(O)C=O)NC(=O)[C@@H]2CCCN2C1=O [N(OH)COH Cyclo(X-y(Me)-I-P), n = 5] (cyclo([hLys(Nζ-OH,Nζ-For)][dY](Me)IP)) | 0.09 µM | 0.029 µM |  | 
8 | CC[C@H](C)[C@@H]1NC(=O)[C@@H](Cc2ccc(OC)cc2)NC(=O)[C@H](CCCCS(=O)(=O)CC(=O)C(F)(F)F)NC(=O)[C@H]2CCCN2C1=O [Stfk] |  |  | > 100 µM | 

Now from value to molecule, other results behind:

Row | IC50 (human HDAC4; [4]) | IC50 (mouse HDAC6; [5]) | EC50 [2, 6] | Molecule | also measured
9 | 7.02 µM | 12.2 µM |  | CC[C@H](C)[C@@H]1NC(=O)[C@@H](Cc2ccc(OC)cc2)NC(=O)[C@H](CCCCCCN(O)C=O)NC(=O)[C@H]2CCCCN2C1=O [N(OH)COH Cyclo(X-y(Me)-I-pip), n = 6] | IC50 (human HDAC1; [3]): 6.36 µM
10 |  |  | > 100 µM | Cyclo(-L-Asu(OBzl)-D-Tyr(Me)-L-Ile-D-Pro-) [COOBzI] | 
11 | 5.69 µM | > 500 µM | > 100 µM | CC[C@H](C)[C@@H]1NC(=O)[C@@H](Cc2ccc(OC)cc2)NC(=O)[C@H](CCCCCC(=O)O)NC(=O)[C@H]2CCCN2C1=O [COOH, cyclo(L-Asu-D-Tyr(Me)-L-Ile-D-Pro)] (cyclo([Asu][dY](Me)I[dP])) | IC50 (human HDAC1; [3]): 4.07 µM
12 |  |  | 3.73 µM | CC[C@H](C)[C@@H]1NC(=O)[C@@H](Cc2ccc(OC)cc2)NC(=O)[C@H](CCCCCN(O)C=O)NC(=O)[C@H]2CCCCN2C1=O [N(OH)COH Cyclo(X-y(Me)-I-pip), n = 5, cyclo(-L-Hly(For, OH)-D-Tyr(Me)-L-Ile-D-Pip-)] (cyclo(I[dPip][hLys(Nζ-OH,Nζ-For)][dY](Me))) | IC50 (human HDAC1): 0.067 µM; IC50 (human HDAC4): 0.13 µM; IC50 (mouse HDAC6): 0.18 µM
